Experimental data reported in patent US12448475B2, “Drug delivery compositions and applications thereof” (The University of North Carolina at Chapel Hill, priority 2019, dated 2025).
≈ marks a conversion by molar mass, not a printed value. Each block holds one molecule with its values, some of them ahead of it.

Key:
[1] = Solubilization of poorly soluble drugs in PMeOx-PcBOx polymeric micelles; conditions: polymer 10 mg/ml
Text: (§1) (P2). The molecules examined belonged to different classes including transforming growth factor β (TGF-β) receptor inhibitors (LY2109761, GW788388 and LY364947), protein synthesis inhibitors (bruceantin), toll-like receptor (TLR) 7 agonist (imiquimod), phosphatidylinositol 3-kinase (PI3K) inhibitors (wortmannin and pictilisib (GDC-0941)), microtubule inhibitor (paclitaxel), and topoisomerase inhibitors (Aclacinomycin A and SN-38). […] Drugs were screened at various ratios, beginning at 1:10 (drug:polymer), and increased the ratio until maximal solubility was obtained.

[2] = physchem
Text: as §1

[3] = DLS size distribution of API-loaded micelles, Example 8; format: physicochemical; conditions: PcBOx triblock (PMeOx-PcBOx-PMeOx) micelles
Procedure: (§2) Drug-encapsulated polymeric nanoparticle formulations were prepared by the thin film hydration method. For resiquimod, imiquimod, and RXDX-105, stock solutions of PMeOx-PcBOx-PMeOx and drugs in chloroform:methanol (9:1) solution were mixed together at the pre-determined ratios (8:10 drug to polymer w/w ratio (resiquimod), 2:10 w/w ratio (imiquimod), 4:10 w/w ratio (RXDX-105)). The organic solvent was evaporated at 58° C. under a stream of inert gas to form a thin-film of drug-polymer homogenous mixture. Next, the thin films were hydrated with saline and then incubated for 5-10 min to form drug-encapsulated polymeric micelle solutions. All samples were prepared with 1 mg of polymer and hydrated with 100 uL of saline. The formed micelle solutions were centrifuged at 10,000 rpm for 3 minutes (Sorvall Legend Micro 21R Centrifuge, Thermo Scientific) to remove any precipitate of unloaded drug or polymer. The final concentration of drugs in PMeOx-PcBOx-PMeOx micelles was analyzed by HPLC (Agilent Technologies 1200 series) using a mixture of acetonitrile/water (70%/30% v/v for Resiquimod and imiquimod; 50%/50% v/v for RXDX-105) as the mobile phase. The samples were diluted with mobile phase to final concentration of ˜100 μg/mL of drugs and injected (10 μL) into the HPLC system. The flow rate was 1.0 mL/min, and column temperature was 40° C. Detection wavelength was 254 nm. Drug concentration was quantified against free drug calibration curves. Particle z-average effective diameter and polydispersity index (PDI) were measured by dynamic light scattering (DLS) (Nano-ZS, Malvern Instruments, UK).

[4] = Loading capacity of API-loaded micelles (thin film hydration, HPLC), Example 8; format: physicochemical; conditions: PcBOx triblock (PMeOx-PcBOx-PMeOx) micelles, polymer 10 mg/ml
Procedure: as §2, with “The samples were diluted with mobile phase to final concentration of ˜100 μg/mL of drugs and injected (10 μL) into the HPLC system. The flow rate was 1.0 mL/min, and column temperature was 40° C. Detection wavelength was 254 nm.” left out, “UK). […]” for “UK).”

[5] = DLS size distribution of drug-loaded PMeOx-PcBOx micelle formulations; format: physicochemical; conditions: drug-loaded PMeOx-PcBOx micelle formulation
[6] = Release profile of encapsulated drugs from polymeric micelles; format: physicochemical; conditions: from P2, after 24 hours, 10:1 polymer:drug feeding ratio
Procedure: The release profile of encapsulated drugs (Paclitaxel and Bruceantin) in PMeOx-PcBOx was investigated. Both Paclitaxel and Bruceantin were continuously released from PMeOx-PcBOx nanoparticle, with over 80% of drugs being released at 24 hour time point (FIG. 5C). The release rates were similar for Bruceantin in both of the polymers. […] After 24 hours, most of the PTX was released in PcBOx whereas not even 50% was released from P2. This kind of release data is consistent with previously published data at this low (10:1) polymer:drug feeding ratio. Both paclitaxel and Bruceantin formulation in PMeOx-PcBOx were proven stable for 8 days at 4° C. as the drug loading and size distribution were monitored (FIGS. 5E and 5F).

Compound: c1ccc(-c2[nH]ncc2-c2ccnc3ccccc23)nc1 [LY364947]
LC (maximum loading capacity) [1]: 0.3%

Compound: c1ccc(-c2nn3c(c2-c2ccnc4cc(OCCN5CCOCC5)ccc24)CCC3)nc1 [LY2109761]
LC (maximum loading capacity) [1]: 24.7%
LE (loading efficiency) [1]: 82%
maximal solubilized drug concentration [1]: ~3.28 mg/mL
LC (maximum loading capacity) ([2]; P2 micelles, polymer 10 mg/ml): 14.0%
LE (loading efficiency) ([2]; P2 micelles, polymer 10 mg/ml): 78%
maximal solubilized drug concentration ([2]; P2 micelles, polymer 10 mg/ml): 1.5 mg/mL
Dv10 [5]: 15.5 nm
Dv50 [5]: 21.5 nm
Dv90 [5]: 34.8 nm
PDI [5]: 0.4
size in DLS measurement [5]: 50 nm

Compound: CCc1c2c(nc3ccc(O)cc13)-c1cc3c(c(=O)n1C2)COC(=O)[C@]3(O)CC [SN-38]
LC (maximum loading capacity) [1]: undetectable

Compound: CC[C@@]1(O)C[C@H](O[C@H]2C[C@H](N(C)C)[C@H](O[C@H]3C[C@H](O)[C@H](O[C@H]4CCC(=O)[C@H](C)O4)[C@H](C)O3)[C@H](C)O2)c2c(cc3c(c2O)C(=O)c2c(O)cccc2C3=O)[C@H]1C(=O)OC [aclacinomycin A, Aclacinomycin A]
LC (maximum loading capacity) [1]: 6.8%

Results, then the molecule that gave them:

LC (maximum loading capacity) [1]: 4.3%
solubilization (in words) [2]: practically insoluble
Compound: CS(=O)(=O)N1CCN(Cc2cc3nc(-c4cccc5[nH]ncc45)nc(N4CCOCC4)c3s2)CC1 [GDC-0941, pictilisib]

LC (maximum loading capacity) [1]: 0.2%
Compound: O=C(NC1CCOCC1)c1ccc(-c2cc(-c3c[nH]nc3-c3ccccn3)ccn2)cc1 [GW788388]

LC (maximum loading capacity) [1]: undetectable
Deff [3]: 160 nm
PDI [3]: 0.18
LC (%) [4]: 14.1%
solubilization (in words) [2]: practically insoluble
Compound: CC(C)Cn1cnc2c(N)nc3ccccc3c21 [Imiquimod, imiquimod]

Deff [3]: 112 nm
PDI [3]: 0.30
LC (%) [4]: 24.1%
Compound: COc1cc2ncnc(Oc3cccc(NC(=O)Nc4cc(C(C)(C)C(F)(F)F)on4)c3)c2cc1OC [RXDX-105]

LC (maximum loading capacity) [1]: 6.3%
drug released [6]: < 50%
LC (maximum loading capacity) ([2]; P2 micelles, polymer 10 mg/ml): 41%
LE (loading efficiency) ([2]; P2 micelles, polymer 10 mg/ml): 86%
solubility ([2]; aqueous with cosolvent or surfactant or cyclodextrin): 6890 µg/mL (≈ 8.07 mM)
Dv10 [5]: 23.3 nm
Dv50 [5]: 34.6 nm
Dv90 [5]: 80.9 nm
PDI [5]: 0.298
size in DLS measurement [5]: 85 nm
Compound: CC(=O)O[C@H]1C(=O)[C@@]2(C)[C@H]([C@H](OC(=O)c3ccccc3)[C@]3(O)C[C@H](OC(=O)[C@H](O)[C@@H](NC(=O)c4ccccc4)c4ccccc4)C(C)=C1C3(C)C)[C@]1(OC(C)=O)CO[C@@H]1C[C@@H]2O [paclitaxel]
